The results in this text go back to ChEMBL document CHEMBL1134298, “An orally active, water-soluble neurokinin-1 receptor antagonist suitable for both intravenous and oral clinical administration” (J Med Chem, 2001).

Experiment [1] deals with Gerbillinae. The experiment can be described thus: Inhibition of GR-73632-induced Gerbil foot tapping after immediate pretreatment iv. The class given is functional. The note with it: read-out: ID50 (the source's name).
In a further experiment the target is Substance-P receptor (Homo sapiens, UniProt P25103). The experiment can be described thus: In vitro inhibition of binding of [125I]-substance P to tachykinin receptor 1.
Chain of Substance-P receptor (P25103 whole entry): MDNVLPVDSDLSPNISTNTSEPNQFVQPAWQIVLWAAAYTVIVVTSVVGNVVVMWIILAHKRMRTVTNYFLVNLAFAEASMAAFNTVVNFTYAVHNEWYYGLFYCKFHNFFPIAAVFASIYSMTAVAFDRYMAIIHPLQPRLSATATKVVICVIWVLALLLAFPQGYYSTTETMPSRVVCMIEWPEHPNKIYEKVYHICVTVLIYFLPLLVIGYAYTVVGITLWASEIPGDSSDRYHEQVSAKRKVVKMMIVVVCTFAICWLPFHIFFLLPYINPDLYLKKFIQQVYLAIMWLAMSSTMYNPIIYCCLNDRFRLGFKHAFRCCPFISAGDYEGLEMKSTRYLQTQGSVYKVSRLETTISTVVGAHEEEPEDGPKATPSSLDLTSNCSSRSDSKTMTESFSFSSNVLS
In experiment [2] the test system is Gerbillinae. Put plainly: Inhibition of GR-73632-induced Gerbil foot tapping after 24 hr pretreatment iv. The class given is functional. Conditions: read-out: ID50 (the source's name).

On to `CNCc1nn[nH]c1CN1CCOC(O[C@H](C)c2cc(C(F)(F)F)cc(C(F)(F)F)c2)[C@@H]1c1ccc(F)cc1` (stereo not given in full), for which the ED50 with Gerbillinae [1] was 3.1 mg/kg. The same molecule showed an IC50 at Substance-P receptor of 0.29 nM.
The corresponding values for `C[C@@H](OC1OCCN(Cc2n[nH]nc2CN2CCC2)[C@H]1c1ccc(F)cc1)c1cc(C(F)(F)F)cc(C(F)(F)F)c1` (stereo not given in full) are 0.4 mg/kg and 0.19 nM.
In the case of `C[C@@H](O[C@H]1OCCN(Cc2nn[nH]c2CN)[C@H]1c1ccc(F)cc1)c1cc(C(F)(F)F)cc(C(F)(F)F)c1`, the ED50 in the experiment on Gerbillinae [1] was 5.3 mg/kg. On Substance-P receptor, the IC50 is 0.25 nM.
The corresponding values for `CC(C)N(Cc1[nH]nnc1CN1CCO[C@H](O[C@H](C)c2cc(C(F)(F)F)cc(C(F)(F)F)c2)[C@@H]1c1ccc(F)cc1)C(C)C` are 1 mg/kg and 0.35 nM.
`C[C@@H](O[C@H]1OCCN(Cc2nn[nH]c2CN2CCCC2)[C@H]1c1ccc(F)cc1)c1cc(C(F)(F)F)cc(C(F)(F)F)c1`: the ED50 with Gerbillinae [1] came to 0.4 mg/kg. At Substance-P receptor, this molecule showed an IC50 of 0.21 nM.
`C[C@@H](OC1OCCN(Cc2n[nH]nc2CN(C)C)[C@H]1c1ccc(F)cc1)c1cc(C(F)(F)F)cc(C(F)(F)F)c1.Cl` (stereo not given in full): the ED50 in the experiment on Gerbillinae [1] turned out to be 0.2 mg/kg; in the experiment on Gerbillinae [2], 0.3 mg/kg. The molecule further gave an IC50 on Substance-P receptor of 0.19 nM.
On to `C[C@@H](O[C@H]1OCCN(Cc2n[nH]c(=O)[nH]2)[C@H]1c1ccc(F)cc1)c1cc(C(F)(F)F)cc(C(F)(F)F)c1` [APREPITANT], for which the results for the ED50 with Gerbillinae [1] and with Gerbillinae [2] were 0.4 mg/kg and 0.3 mg/kg, respectively.
